Results from publication PMC9852552, “Emission of floral volatiles is facilitated by cell-wall non-specific lipid transfer proteins” (Nature Communications, 2023).
“And” between values parts separate entries of the source, which are not always exact repeats. Equal values may be shown once.

Key:
[1] = target: recombinant PhnsLTP2; test: TNS displacement assay with recombinant PhnsLTP2; format: binding, Petunia hybrida; conditions: for Kd: PhnsLTP2 1 µM, TNS 3 µM, non-linear fitting to Michaelis-Menten equation, means ± S.E., n = 3, read-out: dissociation constant Kd (PhnsLTP2); for Percentage fluorescence quenched (%): biological replicates 1-3, Supplementary Figure 17
Experimental: (§1) To directly test whether PhnsLTP3 can bind petunia VOCs, in vitro displacement assays were performed using the recombinant PhnsLTP3 protein and fluorescent 6-(p-toluidino)−2-naphthalenesulfonate (TNS) in the presence of petunia volatiles. […] TNS fluoresces strongly when bound to the hydrophobic regions of the protein, while it has weak fluorescence in an aqueous solution. […] Potential ligands of the protein will displace the bound TNS from the hydrophobic protein pocket into the aqueous environment leading to a decrease in the fluorescent signal, which was used to calculate the dissociation constant of the protein with ligand. […] To test whether PhnsLTP2 and PhnsLTP3 can bind other VOCs, we assayed the terpenoids: limonene, linalool, and nerolidol, as well as methyl jasmonate in TNS displacement assays. Both PhnsLTP2 and PhnsLTP3 were able to bind tested volatile compounds with Kds in the micromolar range (Supplementary Figs. 16 and 17).
(§2) The fluorescence-based-binding assays were performed largely according to previous publications[12],[52] with slight modifications. […] All mixtures were excited at 320 nm, and the fluorescence emission at 437 nm was recorded using a plate reader (SpectraMax iD3, Molecular Devices) at equilibrium after 5 min of incubation at 25 °C giving the background fluorescence Fmix0 and FTNS0 . The tested ligands dissolved in 2 µL DMSO were then added to the mixtures and TNS only to different final concentrations, and the fluorescence emissions were recorded at equilibrium after 5 min of incubation ( Fmixligand and FTNSligand ). To account for the change in the TNS fluorescence intensity upon adding the solvent DMSO, the background fluorescence of TNS ( FTNSsol ) as well as each PhnsLTP with TNS ( Fmixsol ) were measured. The ratios RTNS=FTNSsol/FTNS0 and Rmix=Fmixsol/Fmix0 were calculated to calibrate the fluorescence. Three measurements were taken for each concentration. The results were expressed as a percentage of fluorescence quenched Fmixligand/Rmix−FTNSligand/RTNS/Fmix0−FTNS0×100% . The corresponding dissociation constants kd were obtained by non-linear regression fitting of the binding kinetics to the Michaelis-Menten equation.
Supplementary Figure 16 | Binding kinetics of recombinant PhnsLTP2 with phenylpropanoids/benzenoids by petunia flowers, terpenoids and methyl jasmonate.
TNS displacement assays were performed at fixed concentrations of PhnsLTP2 (1 µM) and TNS (3 µM) and the fluorescence was measured before and after the tested compounds were added at various concentrations. The results are expressed as percentage of fluorescence quenched with respect to the concentration of added compound. The binding curves were obtained by non-linear fitting to the Michaelis-Menten equation (solid line in the graph) and the dissociation constants Kd [µM] were obtained. Phenylacetaldehyde, eugenol, and […]
corresponding binding curves. All data are means ±S.E. (n = 3 biological replicates).

[2] = target: recombinant PhnsLTP3; test: TNS displacement assay with recombinant PhnsLTP3; format: binding, Petunia hybrida; conditions: PhnsLTP3 1 µM, TNS 3 µM; for Kd: non-linear fitting to Michaelis-Menten equation (one binding site), means ± S.E., n = 3, read-out: dissociation constant Kd (PhnsLTP3); for Percentage fluorescence quenched: three biological replicates (c2-c4)
Experimental: as §1
Fig. 5 Binding kinetics of recombinant PhnsLTP3 with VOCs emitted by petunia flowers. TNS displacement assays were performed at fixed concentrations of PhnsLTP3 (1 µM) and TNS (3 µM) and the fluorescence was measured before and after the tested compounds were added at various concentrations. The results are expressed as percentage of fluorescence quenched with respect to the concentration of added compound. The binding curves were obtained by non-linear fitting to the Michaelis-Menten equation (solid line in the graph) and the dissociation constants Kd [µM] were obtained. […] All data are means ± S.E. (n = 3 biological replicates).
as §2
The binding curves of PhnsLTP3 with various VOC compounds were obtained by non-linear fitting to the one-binding-site (Eq. (1)) and two-binding-site (Eq. (2)) models. The equations assume that the ligand binds to multiple independent binding sites and that the binding to each site follows the law of mass action:1 %offluorescencequenched=Bmax×[TNS]/kd+[TNS] 2 %offluorescencequenched=Bmax1×[TNS]/kd1+[TNS]+Bmax2×[TNS]/kd2+[TNS] […]
PhnsL TP3 (1 µ M)and TNS (3 µ M)and the fluorescence was measured before and after the tested compounds were added at various concentrations. The results are expressed as percentage of fluorescence quenched with respect to the concentration of added compound.
The binding curves were obtained by non-linear fitting to the Michaelis-Menten equation (solid line in the graph) and the dissociation constants Kd [µ M]were obtained. All data are means ±S.E. (n = 3 biological replicates).
Supplementary Figure 25 | Analysis of number of binding sites of PhnsLTP3.
TNS displacement assay was performed at fixed concentrations of PhnsLTP3 (1 µM) and TNS (3 µM) and the fluorescence was measured before and after methyl […]

[3] = system: petunia flowers; test: Phenylalanine feeding: total VOC emission and total pools; format: in vivo, Petunia hybrida; conditions: for Total pools / Total emission: biological replicates 1-3; for absolute increase over 2 h in VOC emission rate upon Phe feeding: 150 mM Phe, 19:00 to 22:00 h
From the text: Such reduction in VOC emission could be the result of diminished VOC transport across the cell wall, decreased VOC biosynthesis or both. […] Recently, we have shown that the VOC redistribution and reduction of their levels in the cuticle decrease their release from the cell and reduce carbon flux to Phe, which is the precursor for petunia VOCs[8]. […] Thus, to distinguish between the contribution of VOC transport and Phe limitation in VOC biosynthesis, control and PhnsLTP3-RNAi-R5 flowers were fed with Phe, and total VOC emission and total pools were measured from 19:00 to 22:00 h (Supplementary Fig. 20).
Floral volatile emission was analyzed by dynamic headspace collection of volatiles at 25 °C on columns containing 20 mg Porapak Q (80–100 mesh) (Sigma-Aldrich) and analyzed on an Agilent 6890N-5975B GC–MS system as described previously[7],[8],[43] with minor modifications. Briefly, emitted volatiles were collected from detached transgenic and wild-type flowers from 19:00 to 22:00 h on day 2 postanthesis. Adsorbed volatiles were eluted from collection columns with 280 μL dichloromethane containing 52 nmol of naphthalene as the internal standard. For analysis of total petal pools, 0.5 g of petal tissue from transgenic and control plants was collected at 22:00 h on day 2 postanthesis, ground to a fine powder in liquid nitrogen, and total petal pools were extracted in 5 mL of dichloromethane containing 52 nmol of internal standard (naphthalene) for 12 h at −20 °C. Samples were then warmed up, vortexed and concentrated to 200 μL under a stream of nitrogen gas before injection into GC–MS (Agilent 6890N-5975B). All GC–MS data were collected and analyzed using Agilent MSD ChemStation F.01.03.2357 software. For phenylalanine feeding, flowers from wild type and PhnsLTP3-RNAi were harvested and placed in 150 mM of phenylalanine solution. Emitted volatiles and their total petal pools were sampled every hour from 16:00 till 19:00 h and from 19:00 till 22:00 h and analyzed as described above.
Supplementary Figure 20 | Total VOC emission and their total pools in control and PhnsLTP3-RNAi petunia flowers fed with 150 mM Phe. Total VOC emission (a) and total pools (b) in wild-type (WT) and PhnsLTP3-RNAi-R5 line fed with 150 mM Phe from 19:00 to 22:00 h. Data are means ± S.E. (n = 3 biological replicates). […]
determined by two-way ANOV Awith P = 0.0086. […]

Kd [1] | Kd [2] | Percentage fluorescence quenched ([2]; VOC concentration 30 µM) | Percentage fluorescence quenched ([2]; VOC concentration 300 µM) | Percentage fluorescence quenched ([2]; VOC concentration 1500 µM) | Percentage fluorescence quenched ([2]; VOC concentration 3000 µM) | Percentage fluorescence quenched ([2]; VOC concentration 3 µM) | SMILES | also measured
399 ± 261 µM | 208 ± 74.2 µM | 3.06% and 3.64% and 9.84% | 23.75% and 24.96% and 17.77% | 32.13% and 29.61% and 29.01% | 34.41% and 38.89% and 34.26% | – | OCc1ccccc1 [Benzyl alcohol] | –
114 ± 12.9 µM | 26.3 ± 10.4 µM | 6.62% and 14.22% and 7.63% | 35.76% and 34.45% and 15.77% | 17.05% and 24.17% and 26.21% | 22.96% and 20.23% and 21.72% | 5.78% and 5.07% and 1.21% | COc1cc(C=O)ccc1O [Vanillin] | –
184 ± 96.5 µM | 253 ± 112 µM | – | – | – | – | – | CC/C=C\CC1C(=O)CCC1CC(=O)OC (stereo not shown) [Methyl jasmonate] | Percentage fluorescence quenched (%) ([1]; VOC concentration 1500 µM): 75.75% and 76.43% and 72.92%
501 ± 35.8 µM | 299 ± 52.4 µM | – | – | – | – | – | C=CC(C)(O)CCC=C(C)C (stereo not shown) [Linalool] | –
21.8 ± 8.8 µM | 6.5 ± 2.7 µM | 72.95% and 50.76% and 70.40% | – | – | – | 33.25% and 16.42% and 33.70% | O=C(OCc1ccccc1)c1ccccc1 [Benzylbenzoate] | Percentage fluorescence quenched ([2]; VOC concentration 1 µM): 31.47% and 9.59% and 36.79%; Percentage fluorescence quenched ([2]; VOC concentration 5 µM): 25.37% and 28.56% and 39.27%; Percentage fluorescence quenched ([2]; VOC concentration 12 µM): 59.42% and 53.23% and 61.87%
21.4 ± 4.5 µM | 2.4 ± 0.4 µM | – | – | – | – | – | C=CC(C)(O)CCC=C(C)CCC=C(C)C (mixture of isomers) [Nerolidol] | Percentage fluorescence quenched (%) ([1]; VOC concentration 30 µM): 79.85% and 81.10% and 78.83%
– | – | – | – | – | – | – | N[C@@H](Cc1ccccc1)C(=O)O [Phe, L-phenylalanine] | Total pools ([3]; PhLTP3-RNAi-5 + Phe, 19:00 h): 440.17 nmol g FW-1 and 381.25 nmol g FW-1 and 288.77 nmol g FW-1; Total emission ([3]; PhLTP3-RNAi-5 + Phe, 20:00 h): 837.22 nmol g FW-1 h-1 and 1059.64 nmol g FW-1 h-1 and 828.44 nmol g FW-1 h-1; Total pools ([3]; PhLTP3-RNAi-5 + Phe, 20:00 h): 756.94 nmol g FW-1 and 1050.75 nmol g FW-1 and 883.29 nmol g FW-1; Total emission ([3]; PhLTP3-RNAi-5 + Phe, 21:00 h): 2356.48 nmol g FW-1 h-1 and 1887.30 nmol g FW-1 h-1 and 1311.64 nmol g FW-1 h-1; Total pools ([3]; PhLTP3-RNAi-5 + Phe, 21:00 h): 1249.12 nmol g FW-1 and 1300.32 nmol g FW-1 and 829.02 nmol g FW-1; Total emission ([3]; PhLTP3-RNAi-5 + Phe, 22:00 h): 2845.33 nmol g FW-1 h-1 and 2241.14 nmol g FW-1 h-1 and 2347.25 nmol g FW-1 h-1; Total pools ([3]; PhLTP3-RNAi-5 + Phe, 22:00 h): 913.29 nmol g FW-1 and 1187.03 nmol g FW-1 and 1389.76 nmol g FW-1; absolute increase over 2 h in VOC emission rate upon Phe feeding ([3]; PhnsLTP3-RNAi-R5 flowers): 1569 ± 76 nmol g FW^−1; Total pools ([3]; WT + Phe, 19:00 h): 363.34 nmol g FW-1 and 564.43 nmol g FW-1 and 340.47 nmol g FW-1; Total emission ([3]; WT + Phe, 20:00 h): 1481.84 nmol g FW-1 h-1 and 2333.99 nmol g FW-1 h-1 and 1404.14 nmol g FW-1 h-1; Total pools ([3]; WT + Phe, 20:00 h): 885.56 nmol g FW-1 and 1126.01 nmol g FW-1 and 1295.32 nmol g FW-1; Total emission ([3]; WT + Phe, 21:00 h): 1814.62 nmol g FW-1 h-1 and 2602.15 nmol g FW-1 h-1 and 2554.66 nmol g FW-1 h-1; Total pools ([3]; WT + Phe, 21:00 h): 1190.78 nmol g FW-1 and 1426.22 nmol g FW-1 and 956.14 nmol g FW-1; Total emission ([3]; WT + Phe, 22:00 h): 3087.41 nmol g FW-1 h-1 and 2626.99 nmol g FW-1 h-1 and 3838.92 nmol g FW-1 h-1; Total pools ([3]; WT + Phe, 22:00 h): 1455.77 nmol g FW-1 and 972.77 nmol g FW-1 and 1086.37 nmol g FW-1; absolute increase over 2 h in VOC emission rate upon Phe feeding ([3]; wild-type flowers): 1444 ± 298 nmol g FW^−1
126 ± 43.6 µM | 26.7 ± 14.2 µM | – | – | – | – | – | C=C(C)[C@H]1CC=C(C)CC1 [Limonene] | –

SMILES | Kd [1] | Kd [2] | Percentage fluorescence quenched ([2]; VOC concentration 30 µM) | Percentage fluorescence quenched ([2]; VOC concentration 300 µM) | Percentage fluorescence quenched ([2]; VOC concentration 1500 µM) | Percentage fluorescence quenched ([2]; VOC concentration 3000 µM) | Percentage fluorescence quenched ([2]; VOC concentration 3 µM) | also measured
OCCc1ccccc1 [2-Phenylethanol] | – | 395 ± 131 µM | 14.26% and 5.61% and 8.61% | 15.48% and 18.99% and 19.97% | 39.03% and 34.28% and 33.24% | 41.03% and 32.70% and 40.07% | 8.20% and 0.13% and 7.39% | –
